Reference: publication PMC8219027, “A small-molecule inhibitor of the BRCA2-RAD51 interaction modulates RAD51 assembly and potentiates DNA damage-induced cell death” (Cell Chemical Biology, 2021)
Read-outs that look alike come from different tables or passages of the source.

How the values were obtained:
HumRadA2 [1] = target: T1, HumRadA2 (Pyrococcus furiosus, UniProt O74036, D220A/E219S/I169M/K221M/V202Y/Y201A); test: Isothermal titration calorimetry (ITC) against HumRadA2; format: binding, Pyrococcus furiosus (humanised RadA)
Experimental: ITC was performed using a Microcal iTC200 instrument at 25°C. Experiments typically involved titrating a 10-fold excess of ligand in the injection syringe against the protein ([HumRadA2] = 60 μM or [ChimRAD51] = 20 μM) in either 200 mM Tris buffer at pH 7.5 and 100 mM NaCl (HumRadA2) or 20 mM potassium phosphate at pH 8.0 and 192 mM KCl (ChimRAD51). Titrations were typically performed with 5-10% DMSO and care was taken to ensure that the DMSO concentrations in the protein and ligand solutions were well matched. The raw ITC data were fitted using a single-site binding model in Microcal ITC LLC data analysis program in the Origin 7.0 package to derive the dissociation constant, stoichiometry and ΔH of binding. […]

ChimRAD51 [2] = target: ChimRAD51; set-up: method as in Moschetti et al., 2016; conditions: ref Moschetti et al., 2016; read-out: Kd of binding to ChimRAD51 by ITC; cited from earlier work
ChimRAD51 [3] = target: ChimRAD51; set-up: method as in Moschetti et al., 2016; conditions: direct binding of BRC4 peptide; ref Moschetti et al., 2016; read-out: Kd of binding to ChimRAD51 by FP; cited from earlier work
HumRadA2 [4] = target: T1, HumRadA2; conditions: ref Scott et al., 2016; read-out: Kd against HumRadA2 by ITC; cited from earlier work
[5] = target: ChimRAD51 (chimeric RAD51/RadA protein) (Pyrococcus furiosus | human); test: fluorescence polarisation; competition: 10 nM Alexa Fluor 488-labelled BRC4 peptide and 50 nM ChimRAD51 (about 80-90% saturation), increasing concentration of competitor; isotherms fitted with the expression of Wang (1995)
HCT116 cells = test: SRB growth inhibition assay; format: cell-based, human; conditions: SRB 96 h, Figure 6D (cell line not given)
Experimental: (§1) Adherent cell lines (HCT116 and A549 cells) were seeded into flat-bottomed tissue culture 96-well plates in a volume of 150 μL of growth medium. HCT116 cells were seeded at 750 cells per well and A549 cells were seeded at 1000 cells per well. After 24 hours, compounds dissolved in DMSO were diluted in growth medium and were added to cells such that the final DMSO concentration was 1% (v/v) and the final volume in the well was 200 μL. Cells were then incubated in the presence of compound for 96 hours before fixation.
(§2) Medium was removed from cells and 100 μL of cold 1% (v/v) trichloroacetic acid was added for 30 minutes at 4 degrees. The plates were washed three times in tap water and left to dry at room temperature. The fixed cells were stained in a 0.057% sulphorodamine B/1% acetic acid solution (w/v) and incubated at room temperature with agitation for 30 minutes after which the dye was removed and the plates washed in 1% (v/v) acetic acid and left to dry. The dye was then solubilised in 10 mM Tris solution (pH8) and incubated for 30 minutes under agitation. The plates were then read on a PHERAstar plus plate reader (BMG Labtech) using the fluorescence intensity module (540-590 nm). Growth inhibition was calculated relative to DMSO controls and GI50 values were calculated using Graphpad Prism.

[6] = tested on: HCT116 cells (BRCA2 wild-type); test: SRB growth inhibition assay, combination of CAM833 and PARP1 inhibitor AZD2461; format: cell-based, human; conditions: HCT116, fixed dose 0.1 μM or 1 μM, 96 h
Experimental: as §1, §2
For the PARP inhibitor experiments, the SRB method was used as described above to measure growth inhibition with the exception that cells were seeded into 150 μl medium and then a combination of either 25 μl of CAM833, AZD2461 (SelleckChem; #S7029) or DMSO was added to give a total volume of 200 ul in the well.

Aqueous solubility = conditions: for profiling in cell-based assays

For `Nc1cc2ccccc2cc1C(=O)O` [Compound 3, 3-amino-2-naphthoic acid], which Kd (HumRadA2 [1]) is on record?
Its Kd is 1300 µM.

Which Kd (ChimRAD51 [2]) does the source give for “BRC4 peptide: BRC4 repeat peptide of BRCA2 (CKEPTLLGFHTASGKKVKIAKESLDKVKNLFDEKEQ; Alexa Fluor 488 (maleimide dye) on the additional N-terminal cysteine)” here?
Its Kd is 0.006 µM.

What about the Kd (ChimRAD51 [3]) of the same compound?
Its Kd is 0.004 µM.

With `C[C@H](NC(=O)[C@@H]1CCCN1C(=O)[C@H](Cc1c[nH]cn1)NC(=O)c1cc2ccccc2cc1N)C(N)=O` [Compound 4] as the compound, how does the Kd (HumRadA2 [1]) read?
The Kd was 3 µM.

Which Kd (HumRadA2 [4]) does the source give for Ac-FHTA-NH2 [Compound 1] here?
Its Kd is 280 µM.

Which Kd [5] does the source give for “N-terminal "FxxA" half of the BRC4 repeat (FxxA half-peptide)” here?
The Kd was 36 µM.

For `N.N.O=C([O-])C1(C(=O)[O-])CCC1.[Pt+2]` [Carboplatin, reference compound], which IC50 (HCT116 cells; 0 Gy IR) is on record?
The IC50 was 9.9 µM.

What about the IC50 (HCT116 cells; 1 Gy IR) of the same compound?
The IC50 was 9 µM.

What about the IC50 (HCT116 cells; 2 Gy IR) of the same compound?
The IC50 was 10.6 µM.

What about the IC50 (HCT116 cells; 3 Gy IR) of the same compound?
Its IC50 is 11.1 µM.

Which “growth inhibition by AZD2461 alone (in words)” value [6] does the source give for `COC1CCN(C(=O)c2cc(Cc3n[nH]c(=O)c4ccccc34)ccc2F)CC1` [AZD2461, reference compound] here?
Its value is “little effect”.

Which results are given for `C[C@H](NC(=O)c1ccc2ccccc2c1)C(=O)N1CCC[C@H]1C(=O)N[C@@H](C)c1ccccc1` [Compound 5, (S)-1-((2-Naphthoyl)-L-alanyl)-N-((S)-1-phenylethyl)pyrrolidine-2-carboxamide]?
Kd (HumRadA2 [1]): 0.22 µM; solubility in aqueous media (in words) (Aqueous solubility): too insoluble
